{
  "source": "paper PMC7377239",
  "about": "“Cardiovascular Effects of Polychlorinated Biphenyls and Their Major Metabolites” (Environmental Health Perspectives, 2020)",
  "key": {"[1]": {"system": "iCell cardiomyocytes (human iPSC-derived cardiomyocytes)", "test": "High-content imaging of cytotoxicity and mitochondrial integrity in iPSC-CMs", "assay_type": "cell-based", "conditions": "Homo sapiens, Cardiomyocyte, cardiomyocytes (cm)", "summary_of_the_method": "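Cardiomyocytes grown on gelatinized 384-well plates received fresh medium on the experiment day and were then exposed to chemicals at 0.01–100μM. Nuclei and mitochondria were labeled with Hoechst 33342 and MitoTracker™ Orange, then fixed, and imaged on an ImageXpress® Micro Confocal system. Four-parameter logistic concentration–response fits in R, with a one-standard-deviation vehicle cutoff, gave point-of-departure values.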"}, "HUVECs": {"system": "HUVECs", "test": "High-content imaging cytotoxicity in HUVECs, 24 h", "assay_type": "cell-based, human", "conditions": "Homo sapiens, HUVEC, 24 h, HUVEC, 24 hr", "summary_of_the_method": "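Read-out: multiwavelength high-content imaging of Hoechst 33342, MitoTracker Orange and calcein AM after 24 h compound exposure of confluent HUVEC monolayers. POD values were set using a one-SD cutoff from vehicle (0.5% DMSO) means; with no concentration–response, 100μM was assigned as no observable adverse effect level.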"}},
  "note": "Read-outs that look alike come from different tables or passages of the source.",
  "data": [
    {"smiles": "Oc1ccccc1-c1ccc(Cl)cc1", "note": "[2'-OH-PCB 3]", "values": [
      {"measurement": "minimal effective concentration", "setting": "[1]; 1.5 h, cam, 90 min, read-out: POD cm.cam.90min", "result": 32.8, "unit": "µM"},
      {"measurement": "minimal effective concentration", "setting": "[1]; 1.5 h, mii, 90 min, read-out: POD cm.mii.90min", "result": 9.15, "unit": "µM"},
      {"measurement": "minimal effective concentration", "setting": "[1]; 1.5 h, mito, 90 min, read-out: POD cm.mito.90min", "result": 41.4, "unit": "µM"},
      {"measurement": "minimal effective concentration", "setting": "[1]; 1.5 h, tc, 90 min, read-out: POD cm.tc.90min", "result": 34.5, "unit": "µM"},
      {"measurement": "minimal effective concentration", "setting": "[1]; 24 h, cam, 24 hrs, read-out: POD cm.cam.24hrs", "result": 40.4, "unit": "µM"},
      {"measurement": "minimal effective concentration", "setting": "[1]; 24 h, mii, 24 hrs, read-out: POD cm.mii.24hrs", "result": 6.56, "unit": "µM"},
      {"measurement": "minimal effective concentration", "setting": "[1]; 24 h, mito, 24 hrs, read-out: POD cm.mito.24hrs", "result": 29.8, "unit": "µM"},
      {"measurement": "minimal effective concentration", "setting": "[1]; 24 h, tc, 24 hrs, read-out: POD cm.tc.24hrs", "result": 35.9, "unit": "µM"},
      {"measurement": "minimal effective concentration", "setting": "HUVECs; cyto, read-out: POD huvec.cyto.24hr", "result": 5.19, "unit": "µM"},
      {"measurement": "minimal effective concentration", "setting": "HUVECs; mito, read-out: POD huvec.mito.24hr", "result": 4.06, "unit": "µM"},
      {"measurement": "minimal effective concentration", "setting": "HUVECs; mitoint, read-out: POD huvec.mitoint.24hr", "result": 34.4, "unit": "µM"},
      {"measurement": "minimal effective concentration", "setting": "HUVECs; nma, read-out: POD huvec.nma.24hr", "result": 1.6, "unit": "µM"},
      {"measurement": "minimal effective concentration", "setting": "HUVECs; tc, read-out: POD huvec.tc.24hr", "result": 5.19, "unit": "µM"}
    ]}
  ]
}
